Laboratory results published in publication PMC10686989, “Distinct activation mechanisms of β-arrestin-1 revealed by ^19F NMR spectroscopy” (Nature Communications, 2023).

Columns and labels:
βarr1 [1] = molecular target: T1, βarr1 (Homo sapiens, UniProt P49407, C125S/C140L/C150V/C242V/C251V/C269S/C59V/D390C); experiment: 1D 19F NMR of site-specifically 19F (wPSP-6F)-labeled βarr1; format: biochemical; settings: for Linewidth: 298 K, pH 8.0
T1 construct: we started from a full-length functional cysteine-less βarr1 construct[20]; 6xHis-tag with SSG linker and thrombin cleavage site (N, cleaved yes); made in house; host or cells: E. coli BL21(DE3)
T1 sequence (P49407 whole entry C59V/C125S/C140L/C150V/C242V/C251V/C269S/D390C): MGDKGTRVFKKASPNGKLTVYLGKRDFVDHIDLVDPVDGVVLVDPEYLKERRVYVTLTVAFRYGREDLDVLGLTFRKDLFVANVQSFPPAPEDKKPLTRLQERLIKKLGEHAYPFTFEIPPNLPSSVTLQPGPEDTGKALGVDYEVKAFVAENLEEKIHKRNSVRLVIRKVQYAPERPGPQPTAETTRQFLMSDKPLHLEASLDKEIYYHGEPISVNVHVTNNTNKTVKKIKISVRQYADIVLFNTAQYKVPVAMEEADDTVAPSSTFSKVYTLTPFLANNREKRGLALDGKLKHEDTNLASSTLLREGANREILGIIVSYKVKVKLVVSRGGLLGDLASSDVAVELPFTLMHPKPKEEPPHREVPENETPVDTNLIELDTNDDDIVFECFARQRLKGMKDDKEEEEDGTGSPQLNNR
Source text: The cysteine-less mutant (C59V/C125S/C140L/C150V/C242V/C251V/C269S) of the long splice variant of human βarr1 was used for introduction of single site cysteine mutation for ^19F labeling. The sequence was codon-optimized for expression in Escherichia coli and cloned into a pET-28a(+) vector (Novagen), with an N-terminal 6xHis-tag, followed by an SSG linker and a thrombin cleavage site. All mutants, including the 1–382 (βarr1-ΔCT) and 1–395 truncation constructs, were generated using site-directed mutagenesis kits (Thermo Fisher). Primer sequences for generating the mutants are listed in Supplementary Table 4.
Each single-cysteine mutant of βarr1 was diluted to a concentration of 50 μM to be labeled using the sulfoxide-based ^19F probe wPSP-6F[21],[44]. The wPSP-6F stock dissolved in buffer E was added into the protein sample at 1.5-fold molar ratio excess and incubated at 4 °C for 1 h, followed by quenching with twofold molar ratio of dithiothreitol. The sample was then fully exchanged using buffer E to remove excess of small molecules, and subjected to a second round of SEC purification. The purified proteins were concentrated to 100 μM, flash-frozen in liquid nitrogen and stored at −80 °C until use. The purities of all samples were verified by SDS-PAGE.
The ^19F-labeled βarr1 was diluted to 50 μM using buffer E before incubation with peptides or PIP2. The V2Rpp, β2AR-GRK2pp/GRK6pp or PIP2 were added at 1.2-fold, 3-fold, and 1.5-fold molar ratio excess to the protein, respectively. For the membrane-bound sample, the reconstituted nanodiscs were added at twofold molar ratio of βarr1. All complexes were incubated at 25 °C for 1 h, and the freshly prepared samples were immediately subjected to ^19F NMR experiments.
NMR samples were prepared in buffer E to a final volume of 140 μL, supplemented with 1 mM DTT, 10% D2O for field lock, and 1 μM sodium trifluoroacetate (STFA) as the internal chemical shift reference. All samples were sterile-filtered and loaded into sterile 3 mm NMR microtubes to prevent microbial contamination. Final protein concentrations vary for different constructs, depending on their expression levels and stabilities, but all in the range of 20–50 μM.
All ^19F NMR spectra were recorded at 298 K using a Bruker AVANCE III HD 800 MHz spectrometer equipped with a ^1H-^19F/^13C/^15N TCI triple resonance cryogenic probe. All data were acquired and processed using the Bruker Topspin 4.2.0 software. For all 1D ^19F NMR experiments, the traditional one-pulse sequence was used. The carrier frequency was set to −68.0 ppm and the spectra were recorded with 4k points and a spectral width of 15,000 Hz. Because accurate calibration of the 90° excitation pulse length for individual samples is not practical due to the low protein concentrations, we used the 90° pulse length calibrated from a standard sample (0.05% Trifluoro-toluene in CDCl3) for all βarr1 samples. […] Therefore, all the ^19F experiments were conducted with a 100 ms relaxation delay, and acquired using 100,000–200,000 scans depending on the sample condition, yielding a signal-to-noise (S/N) ratio of approximately 50. SDS-PAGE were run for all samples before and after NMR experiments to ensure that no protein degradation occurs during the experiments.
All NMR data were analyzed using the MestraNova 12.0.0 software (https://mnova.pl). The spectra were baseline-corrected by the Whittaker Smoother method and applied with a 30 Hz exponential windows function. The ^19F chemical shifts were referenced to STFA at −75.450 ppm. All datasets were processed using the same variables to facilitate comparison. Spectral deconvolutions were performed assuming generalized Lorentzian line shapes. To distinguish overlapping resonances, a LB value of 3 Hz was initially applied to ensure the highest resolution and determine the exact chemical shift values. The spectra were subsequently fitted iteratively using an LB value of 30 Hz. […]

βarr1 [2] = molecular target: T1, βarr1; experiment: 19F CEST experiments on βarr1; format: biochemical
Method: The ^19F CEST experiments were acquired at 298 K on Bruker AVANCE III HD 800 MHz spectrometer equipped a ^1H-^19F/^13C/^15N TCI triple resonance cryogenic probe. Sample preparation was the same as for the 1D ^19F NMR experiments, and the protein concentrations were in the range of 50–100 μM depending on the expression levels of different constructs. For each ^19F-labeled sample, a series of 1D saturation transfer experiments were recorded using a 0.2 s recovery delay followed by a 1.8 s saturation period using irradiation field strengths B1 of 10 Hz. For each sample, the positions and spacings of the carrier frequencies for saturation were determined based on the multiple signals observed in the 1D ^19F spectra, normally covering the chemical shift ranges of the signals of interest. The data were collected with a spectral width of 15,000 Hz and the scan number in the range of 400–1500. The spectra were processed and analyzed using the Bruker Topspin 4.2.0 software. The CEST profiles were drawn using GraphPad Prism® 9.

CCCCCCCC(=O)OC[C@H](COP(=O)(O)O[C@@H]1[C@H](O)[C@H](O)[C@@H](OP(=O)(O)O)[C@H](OP(=O)(O)O)[C@H]1O)OC(=O)CCCCCCC [PIP2, diC8-PI(4,5)P2]
Linewidth (βarr1 [1]; 1T36 site, ligand-bound state (V2Rpp 1.2-fold, PIP2 1.5-fold), basal 107): 102 Hz
Linewidth increase upon PIP2 binding (βarr1 [1]; C242 site): ~ 50%
Linewidth (βarr1 [1]; C242 site, PIP2 1.5-fold, basal 80): 120 Hz
Linewidth (βarr1 [1]; C269 site, PIP2 1.5-fold, basal 58): 56 Hz
Linewidth increase upon PIP2 binding (βarr1 [1]; D240C site): ~75%
Linewidth (βarr1 [1]; D240 site, PIP2 1.5-fold, basal 75): 133 Hz
Linewidth of the S2 resonance (βarr1 [1]; D390C site, released conformation, V2Rpp 1.2-fold or PIP2 1.5-fold): > 200 Hz
CT displacement/release (βarr1 [1]; D390C site, V2Rpp 1.2-fold, PIP2 1.5-fold): very slight increase of the active S2 peak at the D390C site
Linewidth (βarr1 [1]; D390 site, ligand-bound state (V2Rpp 1.2-fold, PIP2 1.5-fold), basal 87): 92 Hz
Linewidth increase upon PIP2 binding (βarr1 [1]; E206C site): < 10%
Spectral change at E206C (βarr1 [1]; E206C site, PIP2 alone): no obvious changes at this site
Linewidth (βarr1 [1]; E206 site, ligand-bound state (V2Rpp 1.2-fold, PIP2 1.5-fold), basal 120): 129 Hz
Linewidth increase upon PIP2 binding (βarr1 [1]; E283C site): < 10%
Linewidth (βarr1 [1]; E283 site, PIP2 1.5-fold, basal 99): 106 Hz
Linewidth increase upon PIP2 binding (βarr1 [1]; E313C site): ~ 50%
Linewidth (βarr1 [1]; E313 site, ligand-bound state (V2Rpp 1.2-fold, PIP2 1.5-fold), basal 88): 136 Hz
Linewidth (βarr1 [1]; E404 site, ligand-bound state (V2Rpp 1.2-fold, PIP2 1.5-fold), basal 51): 57 Hz
Linewidth (βarr1 [1]; F244 site, ligand-bound state (V2Rpp 1.2-fold, PIP2 1.5-fold), basal 123): 200 Hz
Linewidth increase upon PIP2 binding (βarr1 [1]; F277C site): < 10%
Linewidth (βarr1 [1]; F277 site, PIP2 1.5-fold, basal 68): 68 Hz
Linewidth (βarr1 [1]; H198 site, PIP2 1.5-fold, basal 107): 115 Hz
S2 population (βarr1 [1]; H295C site, PIP2 alone, 1.5-fold): ~ 68%
S2 population (βarr1 [1]; H295C site, PIP2 co-added with GRK2/6-phosphorylated β2AR peptides): ~ 55%
Gate loop conformational change (S2 state) (βarr1 [1]; H295C site, V2Rpp 1.2-fold, β2AR peptides 3-fold, PIP2 1.5-fold, nanodiscs twofold): dramatic, albeit incomplete transition to the S2 state
Linewidth (βarr1 [1]; H295 site, ligand-bound state (V2Rpp 1.2-fold, PIP2 1.5-fold), basal 230): 362 Hz
Linewidth (βarr1 [1]; L68 site, ligand-bound state (V2Rpp 1.2-fold, PIP2 1.5-fold), basal 89): 101 Hz
Linewidth (βarr1 [1]; L71 site, ligand-bound state (V2Rpp 1.2-fold, PIP2 1.5-fold), basal 62): 73 Hz
Linewidth (βarr1 [1]; L100 site, ligand-bound state (V2Rpp 1.2-fold, PIP2 1.5-fold), basal 247): 242 Hz
Linewidth (βarr1 [1]; L191 site, PIP2 1.5-fold, basal 58): 75 Hz
Linewidth (βarr1 [1]; L293 site, ligand-bound state (V2Rpp 1.2-fold, PIP2 1.5-fold), basal 113): 141 Hz
Linewidth (βarr1 [1]; L334 site, ligand-bound state (V2Rpp 1.2-fold, PIP2 1.5-fold), basal 50): 87 Hz
Linewidth (βarr1 [1]; N375 site, ligand-bound state (V2Rpp 1.2-fold, PIP2 1.5-fold), basal 46): 48 Hz
Linewidth (βarr1 [1]; T6 site, ligand-bound state (V2Rpp 1.2-fold, PIP2 1.5-fold), basal 71): 70 Hz
Linewidth (βarr1 [1]; T183 site, ligand-bound state (V2Rpp 1.2-fold, PIP2 1.5-fold), basal 67): 89 Hz
New peak (βarr1 [1]; Y63C site, PIP2 1.5-fold): appearance of a new peak S3
Spectral changes in the central crest (βarr1 [1]; Y63C, L68C, L71C, T136C, F244C, V2Rpp 1.2-fold, β2AR peptides 3-fold, PIP2 1.5-fold): apparently perturbs Y63C and F244C while having little effect on the other sites
Linewidth (βarr1 [1]; Y63 site, ligand-bound state (V2Rpp 1.2-fold, PIP2 1.5-fold), basal 118): 206 Hz
Intermediate S* state by CEST (βarr1 [2]; D390C site): induces an intermediate conformational species designated as S*
Intermediate S* state by CEST (βarr1 [2]; E404C and T6C sites): induces the conformational equilibrium to shift from the basal towards an intermediate S* state
Intermediate S* state by CEST (βarr1 [2]; H295C site): present in relatively large fraction in both the basal and PIP2-bound states
